According to publication PMC10540216, “Activity Guided Azide-methyllysine Photo-trapping for Substrate Profiling of Lysine Demethylases” (Journal of the American Chemical Society, 2023):
Entries after “also recorded” stand apart in the source; their conditions may differ. Where a SMILES comes first, the peptide text is derived from it. Where no end group is shown, it is not given here. [ ]: non-standard residue; d: D form. Lys(Me3) = C[N+](C)(C)CCCC[C@H](N)C(=O)O; Lys(Me2) = CN(C)CCCC[C@H](N)C(=O)O; Lys(Me) = CNCCCC[C@H](N)C(=O)O

Key:
KDM4A = experiment: Demethylase activity of wild type KDM4A on peptide substrates (MALDI-TOF MS); format: biochemical, human; settings: 10 µM enzyme, 10 µM peptide, 1 mM 2OG, 50 mM Tris pH 8, 37°C, three hours
Experimental: fritted syringe was rocked for 2-4 hours at room temperature using a fixed angle rocker (Fisher 07202202). After cleavage, the solvent was ejected from the syringe into a 50mL Falcon tube, leaving behind the resin in the syringe. Nitrogen gas was bubbled through the solution to remove roughly 50% of the TFA prior to precipitation via -80°C diethyl ether for 5-10 minutes (Acros #326860010). Precipitate was then pelleted via centrifugation (Sorvall Legend XTR) at 3000 rpm for 5 mins. Supernatant was decanted. Crude peptide was then resuspended in 0.1% TFA prior to purification and characterization as described for peptides from the peptide facility. The integrity of the purified peptides was confirmed by MALDI-TOF MS. The complete list is in Table S1.
3. Expression and purification of wild type KDM4A-E […]
bacterial expression construct pNIC28-Bsa4 (Addgene ID: 38846) was obtained from Addgene […]
E. Coli BL21 (DE3) competent cells (Invitrogen) using pNIC28-Bsa4 kanamycin-resistant vector.
A single colony was picked up and grown overnight at 37 °C in 10 mL of Luria-Bertani (LB) broth in the presence of 50 μg/mL kanamycin and 35 μg/mL chloramphenicol. The culture was diluted 100-fold and allowed to grow at 37 °C to an optical density (OD600) of 0.8, and protein expression was induced overnight at 17 °C with 0.6 mM IPTG in an Innova 44® Incubator shaker (New Brunswick Scientific). Proteins were purified as follows: harvested cells were resuspended in 15 mL lysis buffer (50 mM Tris-HCl pH 8.0, 200 mM NaCl, 5 mM b-mercaptoethanol, 10% glycerol, 25 mM imidazole, Lysozyme, DNase, and Roche protease inhibitor cocktail). […]
After passing 20 volumes of washing buffer (50 mM Tris-HCl pH 8.0, 200 mM NaCl, 5 mM b-mercaptoethanol, 10% glycerol, and 25 mM imidazole), proteins were eluted with a buffer containing 50 mM Tris-HCl pH 8.0, 200 mM NaCl, 5 mM b-mercaptoethanol, 10% glycerol, and 400 mM imidazole. […] The protein concentration was determined […]
8.0, 200 mM NaCl, and 10% glycerol. […] The protein concentration was determined using Bradford assay kit (BioRad Laboratories) with BSA as a standard. […]

KDM4A-E = experiment: Demethylase activity of KDM4 subfamily on peptide substrates (MALDI-TOF MS), result worded for KDM4A-E together; format: biochemical, human; settings: wild-type KDM4A-E, 10 µM enzyme, 10 µM peptide, 1 mM 2OG, 50 mM Tris pH 8, 37°C, three hours
CBX1 chromodomain [1] = target: T1, CBX1 chromodomain (Homo sapiens, UniProt P83916); experiment: Isothermal titration calorimetry of peptide binding to CBX1 chromodomain; settings: ITC, 25 °C, 1.1 mM peptide into 110 µM CBX1 chromodomain; for Kd: 200mM NaCl, 10% glycerol, 50mM Tris pH 8.0, single binding site model
T1 construct: occupied by CBX1 chromodomain at a concentration of 110 µM; 6xHis (N); made in house
Experimental: (§1) 7. Expression and purification of lysine methyltransferases and Chromodomains […]
17. Isothermal Titration Calorimetry
Isothermal titration calorimetry (ITC) was performed with an ITC200 instrument (MicroCal, Malvern). Experiments were conducted at 25 °C while stirring at 750 rpm. Buffers of protein […]
were matched to 200mM NaCl, 10% glycerol, and 50mM Tris pH 8.0. Each titration was performed as follows: one initial injection of 0.4 µL for 0.8 seconds, followed by 19 injections of 2.0 µL for 4 seconds, with ≥2 mins between each injection. The initial injection was discarded prior to data analysis. The microsyringe (40µL) was loaded with 1.1 mM peptide and injected into the cell (200µL), occupied by CBX1 chromodomain at a concentration of 110 µM. Data was fitted to a single binding site model using Microcal ITC200 Software with Origin Lab 7.
(§2) KDM4A mammalian expression plasmid in CMV vector was purchased from Addgene (plasmid #24180). Full-length G9a in pCDNA3 vector was kind from Prof. Minkui Luo at the Memorial Sloan-Kettering Cancer Center. HEK293T/17 cells (ATCC) were grown in a T25 containing Delbucco’s Modified Eagle Medium (DMEM) (Corning) with 10% FBS at 37 °C, 5% CO2, and 95% relative humidity. When cells reached 80% confluency, 5 µg of plasmid and 10 µg

CBX1 chromodomain [2] = target: T1, CBX1 chromodomain; experiment: as above; settings: ITC, T 288.15 K in Table S6
G9a = experiment: Methylation of eIF4A3-K374 peptides by KMT (MALDI-TOF MS); format: biochemical; settings: 20 µM KMT, 10 µM peptide, 200 µM SAM
Experimental: as §1
16. Methylation activity of wild type KMTs on eIF4A3-K374me0/1/2 peptides 20 µM lysine methyltransferase, 10 µM eIF4A3-me0/1/2 peptide and 200 µM SAM were incubated at room temperature for 1-2 hours in 50 mM Tris pH 8.0. Reaction was stopped by storing the microcentrifuge tubes on ice. After mixing, 0.8 µL of sample and 0.8 µL of α-cyano-4-hydroxycinnamic acid (CHCA) (dissolved in 50:50 0.1% TFA and acetonitrile) were combined on a MALDI plate. Samples were ionized using reflectron positive mode on Bruker Daltonics UltrafleXtreme MALDI TOF with detection carried out from 700-3500 m/z. Bruker Flex Analysis software was used to analyze the MALDI-TOF MS spectra.
17. Isothermal Titration Calorimetry […]
The microsyringe (40µL) was loaded with 1.1 mM peptide and injected into the cell (200µL), occupied by CBX1 chromodomain at a concentration of 110 µM. Data was fitted to a single binding site model using Microcal ITC200 Software with Origin Lab 7.
as §2

KDM4C-I73AzF = experiment: Photo-crosslinking with TAMRA peptides, in-gel fluorescence; format: binding, human; settings: 10 µM peptide, 20 µM protein, UV irradiation
Experimental: (§3) 10. Photo-crosslinking experiment with peptides and in-gel fluorescence For peptide photo-crosslinking experiments, 10 µM TAMRA-labeled H3K9me0 or H3K9me3 […]
(§4) mM ascorbic acid, 50 mM tris pH 8.0, 50 μM Fe(NH4)2(SO4)2, 200 µM 2OG. Samples were […]
(§5) 365nm 100% irradiated) for 30 minutes at 4 °C on ice. Negative controls were kept in dark on ice for the full 30 minutes. 10 µL of sample was mixed with 5 µL 4X Laemmli dye (Biorad #1610747) and separated on a 4-12 % Criterion XT precast gel (Bio-Rad Laboratories). Gels were imaged on a ChemiDoc MP Imaging system using TAMRA fluorophore excitation wavelength (Emission filter 605/50, Light: green Epi illumination). The gel was subsequently stained with Coomassie brilliant blue R-250 staining solution to confirm the presence of proteins in all the samples. […]

KDM4D-L75AzF = experiment: as above; format: binding, human; settings: 10 µM peptide, 20 µM protein, UV irradiation
Experimental: as §3, §4, §5

[3] = test system: catalytically dead AzF variants of KDM4A; experiment: as above; format: binding, human; settings: majority of the catalytically dead AzF variants, 10 µM peptide, 20 µM protein, 365 nm UV, 30 minutes
Experimental: as §3, §4, §5

wild-type KDM4A = experiment: as above; format: binding, human; settings: 10 µM peptide, 20 µM protein, 365 nm UV, 30 minutes at 4 °C
Experimental: as §3, §4, §5

KDM4A-I71AzF [4] = experiment: as above; format: binding, human
KDM4E-L72AzF = experiment: as above; format: binding; settings: 10 µM peptide, 20 µM protein, UV irradiation
Experimental: as §3, §4, §5

KDM4A-I71AzF [5] = experiment: Demethylase activity of AzF mutant on peptide substrates (MALDI-TOF MS); format: biochemical, human; settings: 10 µM enzyme, 10 µM peptide, 1 mM 2OG, 50 mM Tris pH 8, 37°C, three hours

T1 sequence (P83916 21-79 limits assumed): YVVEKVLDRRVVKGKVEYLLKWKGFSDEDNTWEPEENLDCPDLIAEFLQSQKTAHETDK

In the case of `CC[C@H](C)[C@H](NC(=O)[C@H](C)NC(=O)[C@@H](NC(=O)CNC(=O)[C@H](CCCC[N+](C)(C)C)NC(=O)[C@H](CCCNC(=N)N)NC(=O)CNC(=O)[C@H](Cc1ccc(O)cc1)NC(=O)[C@H](CCCNC(=N)N)NC(=O)CNC(=O)[C@H](CO)NC(=O)[C@H](CCCNC(=N)N)NC(=O)CN)C(C)C)C(=O)N[C@@H](CC(N)=O)C(=O)N[C@@H](Cc1ccccc1)C(=O)N[C@H](C(=O)N[C@@H](CCCCN)C(N)=O)C(C)C` [compound 13] (H-GRSGRYGR[Lys(Me3)]GVAINFVK-NH2), the “demethylation by KDM4A” value (KDM4A) is reported as “indeed demethylated by KDM4A in vitro”, the “demethylation by KDM4A-E” value (KDM4A-E) is reported as “demethylated by multiple KDM4s; also recorded: robust demethylation” and the Kd (CBX1 chromodomain [1]) is reported as 23.2 ± 2 µM. For the same molecule, the TΔS (CBX1 chromodomain [2]) was 2.472 kcal/mol, the ΔG (CBX1 chromodomain [2]) was -6.230 kcal/mol and the ΔH (CBX1 chromodomain [2]) was -3.758 kcal/mol. It also gave a ΔS (CBX1 chromodomain [2]) of 8.58 cal/mol/degree.
With `CC[C@H](C)[C@H](NC(=O)[C@H](C)NC(=O)[C@@H](NC(=O)CNC(=O)[C@H](CCCCN(C)C)NC(=O)[C@H](CCCNC(=N)N)NC(=O)CNC(=O)[C@H](Cc1ccc(O)cc1)NC(=O)[C@H](CCCNC(=N)N)NC(=O)CNC(=O)[C@H](CO)NC(=O)[C@H](CCCNC(=N)N)NC(=O)CN)C(C)C)C(=O)N[C@@H](CC(N)=O)C(=O)N[C@@H](Cc1ccccc1)C(=O)N[C@H](C(=O)N[C@@H](CCCCN)C(N)=O)C(C)C` [compound 23] (H-GRSGRYGR[Lys(Me2)]GVAINFVK-NH2) the “demethylation by KDM4A” value (KDM4A) was “demethylated only to eIF4A3-K374me1 by KDM4A; also recorded: demethylated to Kme1 by KDM4A”, the “methylation by G9a (in words)” value (G9a) was “methylated by G9a; also recorded: trimethylated by G9a” and the Kd (CBX1 chromodomain [1]) was 95.2 ± 1.4 µM. The TΔS (CBX1 chromodomain [2]) was -1.106 kcal/mol, the ΔG (CBX1 chromodomain [2]) was -5.470 kcal/mol and the ΔH (CBX1 chromodomain [2]) was -6.576 kcal/mol. The ΔS (CBX1 chromodomain [2]) was -3.84 cal/mol/degree.
With “(5/6)-TA M R A-GGARTKQTARKme3STGGKAPR [compound 6, tetramethylrhodamine (TAMRA)-attached H3K9me3 peptide]” the “crosslinking with KDM4C-I73AzF” value (KDM4C-I73AzF) was “successful crosslinking”, the “crosslinking with KDM4D-L75AzF” value (KDM4D-L75AzF) was “successful crosslinking” and the “crosslinking with catalytically dead AzF variants” value [3] was “ineffective to trap the substrate”. The “crosslinking with wild-type KDM4A” value (wild-type KDM4A) was “failed to undergo crosslinking”, the “crosslinking with KDM4A-I71AzF” value (KDM4A-I71AzF [4]; 10 µM peptide, 20 µM protein, 365 nm UV, 30 minutes at 4 °C) was “robust crosslinking” and the “crosslinking without UV exposure (control)” value (KDM4A-I71AzF [4]; kept in dark on ice 30 minutes) was “no fluorescence band was detected”. The “crosslinking with KDM4E-L72AzF” value (KDM4E-L72AzF) was “successful crosslinking”.
In the case of “GRSGRYGR[Lys(Me)]GVAINFVK [compound 22, eIF4A3-K374me1 peptide]”, the “demethylation by KDM4A” value (KDM4A) is reported as “not demethylated by KDM4A; also recorded: failed to convert to Kme0”, the “methylation by G9a (in words)” value (G9a) is reported as “methylated by G9a; also recorded: trimethylated by G9a” and the “binding to CBX1 chromodomain (in words)” value (CBX1 chromodomain [1]; 50mM Tris pH 8.0) is reported as “no binding; also recorded: not bind to CBX1; also recorded: no detectable interaction”. For the same molecule, the TΔS (CBX1 chromodomain [2]) was 0 kcal/mol, the ΔG (CBX1 chromodomain [2]) was 0 kcal/mol and the ΔH (CBX1 chromodomain [2]) was 0 kcal/mol. For the same molecule, the ΔS (CBX1 chromodomain [2]) was 0 cal/mol/degree.
For “KSAPSTGGVKme3KPHRYKPGTGK [compound 5, H3K36me3 peptide]”, the “demethylation by I71AzF mutant” value (KDM4A-I71AzF [5]) was “modestly”.
